From patent publication US7605172B2, “Thiazolo-naphthyl acids” (Wyeth, priority 2004, dated 2009)

Columns and labels:
[1] = target: T1, recombinant human plasminogen activator inhibitor-1 (PAI-1) (Homo sapiens, UniProt P05121); experiment: Primary screen for the PAI-1 inhibition; assay type: biochemical; conditions: for inhibition at 10 µM: 10 μM test compound; for inhibition at 25 µM: 25 μM test compound
T1 construct: purchased Molecular Innovations, Royal Oak, Mich
Experimental: Test compounds are dissolved in DMSO at a final concentration of 10 mM, then diluted 100× in physiologic buffer. The inhibitory assay is initiated by the addition of the test compound (1-100 μM final concentration, maximun DMSO concentration of 0.2%) in a pH 6.6 buffer containing 140 nM recombinant human plasminogen activator inhibitor-1 (PAI-1; Molecular Innovations, Royal Oak, Mich.). Following a 1 hour incubation at room temperature, 70 nM of recombinant human tissue plasminogen activator (tPA) is added, and the combination of the test compound, PAI-1 and tPA is incubated for an additional 30 minutes. Following the second incubation, Spectrozyme-tPA (American Diagnostica, Greenwich, Conn.), a chromogenic substrate for tPA, is added and absorbance read at 405 nm at 0 and 60 minutes. Relative PAI-1 inhibition is equal to the residual tPA activity in the presence of the test compound and PAI-1. Control treatments include the complete inhibition of tPA by PAI-1 at the molar ratio employed (2:1), and the absence of any effect of the test compound on tPA alone.

human PAI-1 = human PAI-1 (Homo sapiens, UniProt P05121); experiment: Assay for determining IC50 of inhibition of PAI-1 (Antibody Assay); assay type: binding; conditions: active PAI-1 bound to tPA-coated plate
Experimental: This assay is based upon the non-SDS dissociable interaction between tPA and active PAI-1. Assay plates are initially coated with human tPA (10 μg/ml). Test compounds of the present invention are dissolved in DMSO at 10 mM, then diluted with physiologic buffer (pH 7.5) to a final concentration of 1-50 μM. Test compounds are incubated with human PAI-1 (50 ng/ml) for 15 minutes at room temperature. The tPA-coated plate is washed with a solution of 0.05% Tween 20 and 0.1% BSA, then the plate is blocked with a solution of 3% BSA. An aliquot of the thiazolo-naphthyl acid/PAI-1 solution is then added to the tPA-coated plate, incubated at room temperature for 1 hour, and washed. Active PAI-1 bound to the plate is assessed by adding an aliquot of a 1:1000 dilution of the 33B8 monoclonal antibody against human PAI-1, and incubating the plate at room temperature for 1 hour (Molecular Innovations, Royal Oak, Mich.). The plate is again washed, and a solution of goat anti-mouse IgG-alkaline phosphatase conjugate is added at a 1:50,000 dilution in goat serum. The plate is incubated 30 minutes at room temperature, washed, and a solution of alkaline phosphatase substrate is added. The plate is incubated 45 minutes at room temperature, and color development is determined at OD405 nm. The quantitation of active PAI-1 bound to tPA at varying concentrations of the test compound is used to determine the IC50. Results are analyzed using a logarithmic best-fit equation. The assay sensitivity is 5 ng/ml of human PAI-1 as determined from a standard curve ranging from 0-100 ng/ml.

Chain of human PAI-1 (P05121 24-402): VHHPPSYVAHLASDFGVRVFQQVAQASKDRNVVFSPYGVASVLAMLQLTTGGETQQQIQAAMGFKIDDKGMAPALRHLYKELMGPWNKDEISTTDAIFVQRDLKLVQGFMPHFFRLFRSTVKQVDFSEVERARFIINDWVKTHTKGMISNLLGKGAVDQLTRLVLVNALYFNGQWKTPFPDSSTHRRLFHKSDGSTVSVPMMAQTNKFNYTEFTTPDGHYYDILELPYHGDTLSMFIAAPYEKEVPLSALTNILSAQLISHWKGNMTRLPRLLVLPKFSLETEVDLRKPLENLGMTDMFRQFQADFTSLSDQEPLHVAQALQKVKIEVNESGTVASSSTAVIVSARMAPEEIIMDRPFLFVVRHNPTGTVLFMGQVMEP
T1 sequence (P05121 24-402): as above

| SMILES | melting point | inhibition at 10 µM [1] | inhibition at 25 µM [1] | IC50 (human PAI-1) |
| --- | --- | --- | --- | --- |
| O=C(O)C(Cc1ccccc1)Oc1ccc2cc(-c3csc(-c4ccccc4)n3)ccc2c1Br (stereo not drawn) [Example 3, 2-{[1-bromo-6-(2-phenyl-1,3-thiazol-4-yl)-2-naphthyl]oxy}-3-phenylpropanoic acid] | 220 to 224 °C | 1% | 49% |  |
| O=C(O)c1ccc(COc2ccc3cc(-c4csc(-c5ccccc5)n4)ccc3c2Br)cc1 (hydrate or solvate) [Example 8, 4-({[1-bromo-6-(2-phenyl-1,3-thiazol-4-yl)-2-naphthyl]oxy}methyl)benzoic acid] | 268 to 270 °C |  |  |  |
| Brc1c(OCc2nnn[nH]2)ccc2cc(-c3csc(-c4ccccc4)n3)ccc12 [Example 5, 5-({[1-bromo-6-(2-phenyl-1,3-thiazol-4-yl)-2-naphthyl]oxy}methyl)-1H-tetraazole] | 227 to 231 °C | 42% | 64% |  |
| O=C(O)COc1ccc2cc(-c3csc(Cc4c(Cl)cccc4Cl)n3)ccc2c1 [Example 6, ({6-[2-(2,6-dichlorobenzyl)-1,3-thiazol-4-yl]-2-naphthyl}oxy)acetic acid] | 205 to 207 °C | 21% | 43% |  |
| O=C(O)c1ccc(COc2ccc3cc(-c4csc(-c5ccccc5)n4)ccc3c2Br)cc1 [Example 8, 4-({[1-bromo-6-(2-phenyl-1,3-thiazol-4-yl)-2-naphthyl]oxy}methyl)benzoic acid] |  | 38% | 49% |  |
| O=C(O)C(Cc1ccccc1)Oc1ccc2cc(-c3nc(-c4ccccc4)sc3Br)ccc2c1Br (stereo not drawn) [Example 7, 2-{[1-bromo-6-(5-bromo-2-phenyl-1,3-thiazol-4-yl)-2-naphthyl]oxy}-3-phenylpropanoic acid] | 221 to 223 °C | 20% | 71% |  |
| c1ccc(-c2nc(-c3ccc4cc(OCc5nnn[nH]5)ccc4c3)cs2)cc1 [Example 2, 5-({[6-(2-phenyl-1,3-thiazol-4-yl)-2-naphthyl]oxy}methyl)-1H-tetraazole] | 226 to 228 °C | 6% | 59% | 34.3 µM |
| O=C(O)COc1ccc2cc(-c3csc(-c4ccccc4)n3)ccc2c1Br [Example 4, {[1-bromo-6-(2-phenyl-1,3-thiazol-4-yl)-2-naphthyl]oxy}acetic acid] | 222 to 230 °C | 40% | 68% | 20.3 µM |
| O=C(O)C(Cc1ccccc1)Oc1ccc2cc(-c3csc(-c4ccccc4)n3)ccc2c1 (stereo not drawn) [Example 1, 3-phenyl-2-{[6-(2-phenyl-1,3-thiazol-4-yl)-2-naphthyl]oxy}propanoic acid] | 154 to 160 °C | 4% | 62% | 26.2 µM |
